Legend:
barnyardgrass = assay: Test C flooded paddy test; format: in vivo, Echinochloa crus-galli; details: for Plant response rating, Barnyardgrass: 500 g ai/ha, visual rating after 12 to 14 days
Method in brief: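 Scoring by eye, 12–14 days post-treatment, greenhouse-held plants vs. controls; 0 no effect, 100 complete control. Sprayed at 1–4 leaves (2–18 cm); paddy barnyardgrass at 2 leaves, flooded.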

[1] = tested on: smallflower umbrella sedge; assay: Test C flooded paddy test; format: in vivo, Cyperus difformis; details: for Plant response rating, Sedge, Umbrella: 500 g ai/ha, visual rating after 12 to 14 days
rice = assay: Test C flooded paddy test; format: in vivo, Oryza sativa; details: for Plant response rating, Rice: 500 g ai/ha, visual rating after 12 to 14 days
Method in brief: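 Injury scored visually against controls on a 0 (no effect) to 100 (complete control) scale, 12 to 14 days after treatment in greenhouse. Flooded paddy plants treated at 2-leaf stage; postemergence plants at 1- to 4-leaf stage, 2 to 18 cm tall.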

velvetleaf = assay: Test A pre-/postemergence herbicide test; format: in vivo, Abutilon theophrasti
Method in brief: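 Pre: seeded sandy loam, directed soil spray, compound in non-phytotoxic solvent + surfactant. Post: 1–2-leaf plants (2–10 cm), sprayed to runoff. Greenhouse ~10 d; visual injury vs untreated, 0–100 scale.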

[2] = 62 g ai/ha, scale 0 to 100 (0 no effect, 100 complete control)
[3] = 125 g ai/ha, scale of 0 to 100, 0 is no effect, 100 is complete control
[4] = 250 g ai/ha, scale of 0 to 100, 0 is no effect, 100 is complete control
[5] = scale 0 to 100 (0 no effect, 100 complete control)
[6] = 125 g ai/ha, scale 0 to 100 (0 no effect, 100 complete control)
[7] = Postemergence, 500 g ai/ha, 0 to 100 scale, 0 no effect, 100 complete control
[8] = Postemergence, 2000 g ai/ha, 0 to 100 scale, 0 no effect, 100 complete control
[9] = Preemergence, 2000 g ai/ha, visual rating, 0 to 100 scale (0 no effect, 100 complete control)
[10] = preemergence, 500 g ai/ha, visual injury, 0 to 100 scale (0 no effect, 100 complete control)

CCn1nc(C(C)(C)C)cc1C(=O)Nc1cc(C(=O)NCC2CC2)ccn1 [Compound 155]
Barnyardgrass plant response rating (barnyardgrass; [2]): 0 | Barnyardgrass plant response rating (barnyardgrass; [3]): 25 | Barnyardgrass plant response rating (barnyardgrass; [4]): 50 | Plant response rating, Barnyardgrass (barnyardgrass; [5]): 65 | Sedge, Umbrella plant response rating [1, 2]: 0 | Sedge, Umbrella plant response rating [1, 6]: 30 | Sedge, Umbrella plant response rating [1, 4]: 65 | Plant response rating, Sedge, Umbrella [1, 5]: 75 | Rice plant response rating (rice; [2]): 0 | Rice plant response rating (rice; [6]): 0 | Rice plant response rating (rice; [4]): 0 | Plant response rating, Rice (rice; [5]): 35

CCn1nc(C(C)(C)C)cc1C(=O)Nc1cccc(OS(=O)(=O)CC)c1 [Compound 408]
Barnyardgrass plant response rating (barnyardgrass; [2]): 20 | Barnyardgrass plant response rating (barnyardgrass; [6]): 45 | Barnyardgrass plant response rating (barnyardgrass; [4]): 60 | Plant response rating, Barnyardgrass (barnyardgrass; [5]): 70 | Sedge, Umbrella plant response rating ([1]; 62 g ai/ha, scale 0 to 100): 60 | Sedge, Umbrella plant response rating [1, 6]: 80 | Sedge, Umbrella plant response rating [1, 4]: 85 | Plant response rating, Sedge, Umbrella [1, 5]: 85 | Rice plant response rating (rice; 62 g ai/ha, scale 0 to 100): 25 | Rice plant response rating (rice; [6]): 35 | Rice plant response rating (rice; [4]): 45 | Plant response rating, Rice (rice; [5]): 55

CCn1nc(C(C)(C)C)cc1C(=O)Nc1cccc(OCCCF)c1 [Compound 138]
Barnyardgrass plant response rating (barnyardgrass; [2]): 0 | Barnyardgrass plant response rating (barnyardgrass; [3]): 0 | Barnyardgrass plant response rating (barnyardgrass; [4]): 15 | Plant response rating, Barnyardgrass (barnyardgrass; [5]): 30 | Velvetleaf plant response rating (velvetleaf; [7]): 20 | Plant response rating, Velvetleaf (velvetleaf; [8]): 60 | Velvetleaf plant response rating (velvetleaf; [9]): 50 | Velvetleaf plant response rating (velvetleaf; [10]): 20 | Sedge, Umbrella plant response rating [1, 2]: 0 | Sedge, Umbrella plant response rating [1, 6]: 40 | Sedge, Umbrella plant response rating [1, 4]: 75 | Plant response rating, Sedge, Umbrella [1, 5]: 95 | Rice plant response rating (rice; [2]): 5 | Rice plant response rating (rice; [6]): 5 | Rice plant response rating (rice; [4]): 5 | Plant response rating, Rice (rice; [5]): 40

CCn1nc(C(C)(C)C)cc1C(=O)Nc1cccc(C(C)=O)c1 [Compound 122]
Barnyardgrass plant response rating (barnyardgrass; [2]): 20 | Barnyardgrass plant response rating (barnyardgrass; [3]): 50 | Barnyardgrass plant response rating (barnyardgrass; [4]): 60 | Plant response rating, Barnyardgrass (barnyardgrass; [5]): 80 | Velvetleaf plant response rating (velvetleaf; [7]): 45 | Plant response rating, Velvetleaf (velvetleaf; [8]): 70 | Velvetleaf plant response rating (velvetleaf; [9]): 70 | Velvetleaf plant response rating (velvetleaf; [10]): 40 | Sedge, Umbrella plant response rating [1, 2]: 50 | Sedge, Umbrella plant response rating [1, 3]: 60 | Sedge, Umbrella plant response rating [1, 4]: 70 | Plant response rating, Sedge, Umbrella [1, 5]: 80 | Rice plant response rating (rice; [2]): 0 | Rice plant response rating (rice; [3]): 10 | Rice plant response rating (rice; [4]): 10 | Plant response rating, Rice (rice; [5]): 50

CCN(C(C)=O)C(=O)c1ccc(F)c(NC(=O)c2cc(C(C)(C)C)nn2CC)c1 [Compound 413]
Barnyardgrass plant response rating (barnyardgrass; [2]): 0 | Barnyardgrass plant response rating (barnyardgrass; [6]): 25 | Barnyardgrass plant response rating (barnyardgrass; [4]): 70 | Plant response rating, Barnyardgrass (barnyardgrass; [5]): 80 | Velvetleaf plant response rating (velvetleaf; [7]): 40 | Plant response rating, Velvetleaf (velvetleaf; [8]): 55 | Velvetleaf plant response rating (velvetleaf; [9]): 35 | Velvetleaf plant response rating (velvetleaf; [10]): 35 | Sedge, Umbrella plant response rating ([1]; 62 g ai/ha, scale 0 to 100): 10 | Sedge, Umbrella plant response rating [1, 6]: 50 | Sedge, Umbrella plant response rating [1, 4]: 75 | Plant response rating, Sedge, Umbrella [1, 5]: 75 | Rice plant response rating (rice; 62 g ai/ha, scale 0 to 100): 35 | Rice plant response rating (rice; [6]): 45 | Rice plant response rating (rice; [4]): 55 | Plant response rating, Rice (rice; [5]): 70

CCn1nc(C(C)(C)C)cc1C(=O)Nc1cccc(C(=O)NC(C)C)c1 [Compound 51]
Barnyardgrass plant response rating (barnyardgrass; [2]): 0 | Barnyardgrass plant response rating (barnyardgrass; [3]): 0 | Barnyardgrass plant response rating (barnyardgrass; [4]): 20 | Plant response rating, Barnyardgrass (barnyardgrass; [5]): 75 | Velvetleaf plant response rating (velvetleaf; Postemergence, 125 g ai/ha, 0 to 100 scale, 0 no effect, 100 complete control): 40 | Velvetleaf plant response rating (velvetleaf; Preemergence, 500 g ai/ha, visual rating, 0 to 100 scale (0 no effect, 100 complete control)): 100 | Velvetleaf plant response rating (velvetleaf; preemergence, 125 g ai/ha, visual injury, 0 to 100 scale (0 no effect, 100 complete control)): 20 | Sedge, Umbrella plant response rating [1, 2]: 45 | Sedge, Umbrella plant response rating [1, 3]: 50 | Sedge, Umbrella plant response rating [1, 4]: 65 | Plant response rating, Sedge, Umbrella [1, 5]: 80 | Rice plant response rating (rice; [2]): 0 | Rice plant response rating (rice; [3]): 0 | Rice plant response rating (rice; [4]): 15 | Plant response rating, Rice (rice; [5]): 50
